Data taken from ChEMBL document CHEMBL1123107, “Synthesis, stereochemistry, and analgesic activity of 4-mono- and 4,4-disubstituted 1,2,3,4,5,6-hexahydro-2,6-methano-3-benzazocines” (1985).
The source made the active and inactive calls. The rule behind the calls is not given here.

Organism: Mus musculus
Assay: Compound was evaluated for analgesic activity in a mouse hotplate test
Type: functional

How did the ED50 turn out when `C[C@@H]1CC2(C)CC(Cc3ccccc32)N1C` (some centres undefined) was run?
Its ED50 is 10.6 mg/kg.

How did the ED50 turn out when `C=CCN1C(C)CC2(C)CC1Cc1ccc(O)cc12` (centres undefined) was run?
Its ED50 is 4.2 mg/kg.

How did the ED50 turn out when `CC1CC2(C)CC(Cc3ccc(O)cc32)N1CC1CC1` (centres undefined) was run?
The ED50 was 2.4 mg/kg.

With `CC1CC2(C)CC(Cc3ccc(O)cc32)N1C` (centres undefined) as the compound, how does the ED50 read?
The ED50 was 1.1 mg/kg.

`CC1CC2(C)c3ccccc3CC(C2C)N1C` (centres undefined) was tested. Which ED50 did it give?
The ED50 was 14.8 mg/kg.

With `C[C@H]1CC2(C)CC(Cc3ccccc32)N1C` (some centres undefined) as the compound, how does the ED50 read?
The ED50 was 24.7 mg/kg.

`C=CC[C@]1(C)CC2(C)CC(Cc3ccccc32)N1C` (some centres undefined) was tested. Which ED50 did it give?
Its ED50 is 3.7 mg/kg.

`CN1CC[C@]23c4c5ccc(O)c4O[C@H]2[C@@H](O)C=C[C@H]3[C@H]1C5.CN1CC[C@]23c4c5ccc(O)c4O[C@H]2[C@@H](O)C=C[C@H]3[C@H]1C5.O=S(=O)(O)O` was tested. Which ED50 did it give?
The ED50 was 1.2 mg/kg.

Tested on: Mus musculus
Assay: Compound was evaluated for analgesic activity in a mouse hotplate test; IA= Inactive at the dose level of 50 mg/kg
Type: functional, organism-based
Design: dose 50 mg/kg

How did the ED50 turn out when `CC1CN(C)C2Cc3ccc(O)cc3C1(C)C2` (centres undefined) was run?
The ED50 was “inactive”.

Tested on: Mus musculus
Assay: Compound was evaluated for analgesic activity in a mouse hotplate test; IA= Inactive at the dose level of 20 mg/kg
Type: functional, organism-based
Design: dose 20 mg/kg

`C=CC[C@@]1(C)CC2(C)CC(Cc3ccccc32)N1C` (some centres undefined) was tested. Which ED50 did it give?
Its ED50 is “inactive”.

`CCC1CC2(C)c3ccccc3CC(C2C)N1C` (centres undefined) was tested. Which ED50 did it give?
The ED50 was “inactive”.

Organism: Mus musculus
Assay: Compound was evaluated for analgesic activity in a mouse hotplate test; b= low level of activity exhibited which did not follow a dose-response relationship
Type: functional, organism-based

How did the ED50 turn out when `CC1C2Cc3ccccc3C1(C)CC(CCc1ccccc1)N2C` (centres undefined) was run?
The ED50 was “Low level of activity”.

With `CN1C2Cc3ccccc3C(C)(C2)CC1(C)Cc1ccccc1` (centres undefined) as the compound, how does the ED50 read?
Its ED50 is “Low level of activity”.

For `CC1C2Cc3ccccc3C1(C)CC(Cc1ccccc1)N2C` (centres undefined), which ED50 is on record?
Its ED50 is “Low level of activity”.
